Several values for one entry are separate records, joined by “and”; a condition that tells them apart may be missing. Equal entries are not always repeated.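 Each compound was tested at five concentrations against cells in 96-well plates for 48 hours. At the GI50, growth is halved. TGI is the concentration that stops growth completely.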
What was measured:
Experiment in all cases: NCI-60 cell line screen, 48 h
786-0 renal = test system: 786-0 renal
KM20L2 colon = test system: KM20L2 colon
MDA-N = test system: MDA-N
NCI-H23 lung = test system: NCI-H23 lung
NCI-H460 lung = test system: NCI-H460 lung
OVCAR-5 ovarian = test system: OVCAR-5 ovarian
SNB-19 CNS = test system: SNB-19 CNS
SNB-78 CNS = test system: SNB-78 CNS
U251 CNS = test system: U251 CNS
UACC-62 melanoma = test system: UACC-62 melanoma
XF 498 CNS = test system: XF 498 CNS
SR leukemia = test system: SR leukemia

Row | Structure (SMILES) | TGI (786-0 renal) | TGI (KM20L2 colon) | TGI (MDA-N) | GI50 (NCI-H23 lung) | GI50 (NCI-H460 lung) | GI50 (OVCAR-5 ovarian) | GI50 (SNB-19 CNS) | TGI (SNB-78 CNS) | GI50 (U251 CNS) | GI50 (UACC-62 melanoma) | TGI (XF 498 CNS) | TGI (NCI-H23 lung) | TGI (NCI-H460 lung) | TGI (OVCAR-5 ovarian) | TGI (SNB-19 CNS) | TGI (SR leukemia) | TGI (U251 CNS) | TGI (UACC-62 melanoma) | GI50 (XF 498 CNS)
1 | C=C1C(O)C2(O)OCC34C(CC5C(C)=CC(=O)C(O)C5(C)C23)OC(=O)C(OC(=O)C/C=C(\C)CCCCC)C14 (configuration not stated) | 0.00681 µM and 0.0244 µM | 0.199 µM | 0.00229 µM and 0.0179 µM | < 0.001 µM | < 0.001 µM | 0.0022 µM | < 0.001 µM | 0.0373 µM | < 0.001 µM | < 0.001 µM | 0.0232 µM | – | – | – | – | – | – | – | –
2 | CC(C)(C)C1=Cc2cc3cc(C(C)(C)C)[nH]c(=O)c3cc2S(=O)(=O)N1 | > 100 µM | – | – | – | – | – | – | > 100 µM | – | – | – | 85.3 µM | > 100 µM | 92.5 µM | > 100 µM | 61.5 µM | 34 µM | 42 µM | –
3 | CCC(C(=O)O)c1ccc(OCc2ccccc2)cc1 (configuration not stated) | – | > 100 µM | – | – | – | – | – | > 100 µM | – | – | > 100 µM | > 100 µM | > 100 µM | > 100 µM | > 100 µM | > 100 µM | > 100 µM | > 100 µM | –
4 | C/C(=N/NC(N)=S)c1ccc2ccccc2c1 | – | 80.4 µM | – | – | – | – | – | > 100 µM | – | – | > 100 µM | > 100 µM | 78.1 µM | 86 µM | > 100 µM | > 100 µM | 80.4 µM | 28.6 µM | –
5 | C=C1C(=O)OC2/C=C(\CO)C(OC(C)=O)CC(O)/C(C)=C/C(OC(=O)C(C)CC)C12 (configuration not stated) | 28.8 µM and 52.9 µM | 58.6 µM | 33.4 µM | – | – | 38.9 µM and 17 µM | – | 42.9 µM | – | – | 29.7 µM | 32.1 µM and 59.9 µM | 63.6 µM and > 100 µM | > 92.8 µM and 32.2 µM | > 100 µM | 39.2 µM | > 91.6 µM and 66.3 µM | 32.3 µM and 38 µM | –
6 | CCC12C[N+]3([O-])CCc4c([nH]c5ccccc45)C(C(=O)OC)(c4cc5c(cc4OC)N(C)C4C(O)(C(=O)OC)C(OC(C)=O)C6(CC)C=CCN7CCC54C76)CC(C3)C1O2 (configuration not stated) | 7.95 µM | 1.52 µM | – | – | – | – | – | 4.65 µM | – | – | 15.3 µM | 8.49 µM | 43.5 µM | 33.3 µM | 11.9 µM | – | 86.1 µM | 16.2 µM | –
7 | CCOC(=O)C1=C(C(C)=O)CSC(c2ccccc2)=N1 | – | > 100 µM | – | – | – | – | – | > 100 µM | – | – | > 100 µM | > 100 µM | > 100 µM | > 100 µM | > 100 µM | – | > 100 µM | > 100 µM | –
8 | COc1cc(/C=C/C(=O)O)ccc1C(=O)O/C=C/c1ccccc1 | – | > 100 µM | – | – | – | – | – | > 100 µM | – | – | > 100 µM | > 100 µM | > 100 µM | > 100 µM | > 100 µM | – | > 100 µM | > 100 µM | –
9 | CSC1CC2C(CC1(C)O)C2(C)C (configuration not stated) | > 100 µM | > 100 µM | – | – | – | – | – | > 100 µM | – | – | 79.1 µM and > 100 µM | > 100 µM | > 100 µM | > 100 µM | > 100 µM | – | > 100 µM | > 100 µM | 16.4 µM and > 100 µM
10 | NC(=O)C(=O)N/N=C1/c2ccccc2CC1C1(O)C(=O)Nc2c(Cl)cc(Cl)cc21 (configuration not stated) | – | > 100 µM | – | – | – | – | – | > 100 µM | – | – | > 100 µM | > 100 µM | > 100 µM | > 100 µM | > 100 µM | > 100 µM | > 100 µM | > 100 µM | –
11 | CN(C)C(CN)CC1=C(CC(CN)N(C)C)CCC1 (configuration not stated) | – | > 100 µM | – | – | – | – | – | > 100 µM | – | – | > 100 µM | > 100 µM | > 100 µM | > 100 µM | > 100 µM | – | > 100 µM | > 100 µM | –
12 | COc1cc(OCc2ccc3oc(=O)c(-c4ccccc4)nc3c2)cc(OC)c1OC | > 100 µM | – | > 100 µM | – | – | – | – | – | – | – | – | > 100 µM | > 100 µM | > 100 µM | > 100 µM | > 100 µM | > 100 µM | > 100 µM | –
13 | CCN(CC)CCNc1ccc2nnn3c4ccc(OC)cc4c(=O)c1c23 | 17.9 µM | 20 µM | – | – | – | – | – | 25.8 µM | – | – | – | 20.9 µM | 13.3 µM | 23.7 µM | 25.9 µM | 7.21 µM | 22.3 µM | 25.7 µM | –
14 | O=C(Nc1cccc2cnccc12)c1cc2c(cc1Cl)Sc1nccn1S2(=O)=O | 33.1 µM | – | 23.7 µM | – | – | – | – | – | – | – | – | 28.6 µM | 24.1 µM | 77.8 µM | 65.3 µM | 48.9 µM | 32.1 µM | 26 µM | –
15 | CCSC1=CC(=O)c2nc3ccccc3c3ccnc1c23 | 11.4 µM | – | 4 µM | – | – | – | – | – | – | – | – | 11.4 µM | 23.8 µM | 15 µM | > 87.1 µM | 15.5 µM | 14.5 µM | 4.32 µM | –
16 | CC1(C)O[C@@H]2COC(=O)[C@@H]2O1 | > 100 µM | – | > 100 µM | – | – | – | – | – | – | – | – | > 100 µM | > 100 µM | > 100 µM | > 100 µM | > 100 µM | > 100 µM | > 100 µM | –
17 | O=C(CN1CCCCC1)CC(O)(C(F)(F)F)C(F)(F)F | > 100 µM | – | > 100 µM | – | – | – | – | – | – | – | – | > 100 µM | > 100 µM | > 100 µM | > 100 µM | > 100 µM | > 100 µM | > 100 µM | –
18 | COCOc1ccc(OC)cc1 | – | > 100 µM | – | – | – | – | – | > 100 µM | – | – | > 100 µM | > 100 µM | > 100 µM | > 100 µM | > 100 µM | – | > 100 µM | > 100 µM | –
19 | CC1(C)C(c2ccccc2)=[N+]([O-])C(C)(C)N1O | > 10 µM | – | > 10 µM | – | – | – | – | – | – | – | – | > 10 µM | > 10 µM | > 10 µM | > 10 µM | > 10 µM | > 10 µM | > 10 µM | –
20 | O=c1c2ncn(C3CC(O)C(CO)O3)c2nnn1Cc1ccccc1[N+](=O)[O-] (configuration not stated) | > 100 µM | – | > 100 µM | – | – | – | – | – | – | – | – | > 100 µM | > 100 µM | > 100 µM | > 100 µM | 45.4 µM | > 100 µM | > 100 µM | –
21 | C/C(=C\c1ccccc1)C(=O)CCN1CCOCC1 | – | 36.1 µM | – | – | – | – | – | 35.4 µM | – | – | 33.3 µM | 32 µM | > 100 µM | 33.4 µM | > 62.1 µM | – | 30.7 µM | 32.6 µM | –
